Results on five compounds are retold here after patent US20240352487A1, “MTOR -TARGETED MODIFICATION AND USES THEREOF” (UNIVERSITÉ LAVAL, priority 2021, published 2024).

“Also recorded” adds a separate entry of the source.

Series [1] relates to MTOR locus. Put plainly: Transgene knock-in at MTOR in K562 cells, FACS quantification. It counts as cell-based, human. Particulars: Rapamycin-treated K562 cells, FACS with antibody staining. The method, then: (A) Strategy for the CRISPR-driven CAR-2A-EGFP gene knock-in to the MTOR locus using a plasmid donor. (B) K562 cells were transfected with 0.5 μg of SpCas9-sgRNA-expressing plasmid and 1 μg of donor plasmid. Cells were treated with 0.5 μM rapamycin 3 days post-transfection until all non-resistant cells were eliminated. The percentage of cells expressing the EGFP reporter was quantified by FACS after selection. HA; homology arm. PA; polyadenylation signal. EGFP; enhanced green fluorescent protein. 2A self-cleaving peptide.
(A) Strategy for the CRISPR-driven RQR8 gene knock-in to the MTOR locus using a plasmid donor. (B) K562 cells were transfected with 0.5 μg of SpCas9-sgRNA-expressing plasmid and 1 μg of donor plasmid harboring. […] The percentage of cells expressing the RQR8 epitope marker was quantified by FACS after selection using an Alexa Fluor 488-conjugated anti-human CD34 antibody. […] (D) Same as in B, but the percentage of cells expressing CD52 was quantified using a FITC-conjugated anti-human CD52 antibody. […]
The percentage of fluorescent cells was quantified using a BD LSRII flow cytometer and 1×10^5 cells were analyzed for each condition. […] Anti-human CD34 Alexa Fluor 488-conjugated antibody clone QBEnd10 (R and D systems Cat FAB7227G) and anti-human CD52 FITC-conjugated antibody clone HI186 were used for RQR8 and CD52 quantification, respectively. […]

Series [2] concerns MTOR locus. Put plainly: F2108L edited alleles in CD3+ T cells after rapamycin selection, TIDER. It counts as cell-based, human. Particulars: 2 μg dsDNA donor, after rapamycin selection 15 days. The text has this:
(A) Strategy for the CRISPR-driven insertion of the F2108L mutation to the MTOR locus using a linear double-stranded DNA (dsDNA) donor. (B) Schematic representation of the SpCas9 target site and the dsDNA donor sequence harboring the F2108L and PAM mutations (WT sequence: 5′ portion corresponds to SEQ ID NO: 45 and 3′ portion corresponds to SEQ ID NO: 46; G49 donor: 5′ portion corresponds to SEQ ID NO: 47 and 3′ portion corresponds to SEQ ID NO: 48). […] The percentage of edited alleles was quantified by TIDER after selection.
Receptor dimerization is induced with rapamycin. […] HA, homology arm. PA, polyadenylation signal. EGFP, enhanced green fluorescent protein. 2A self-cleaving peptide.
dsDNA donors were produced as described previously^24. The donor sequences were cloned into a cloning vector and PCR amplification (25 cycles) was performed using Kapa-HiFi polymerase. DNA purification was performed by solid-phase reversible immobilization using AMPure XP (Beckman Coulter) magnetic beads. […]
Genomic DNA was extracted with QuickExtract DNA extraction solution (EpiCentre) following manufacturer's recommendations. […] Sanger sequencing was performed on PCR amplicons to quantify the percentage of edited alleles using TIDE and TIDER^28,29. […]

In series [3] the test system is MTOR locus. Put plainly: Transgene knock-in at MTOR in CD3+ T cells, FACS quantification. The class given is cell-based, human. The source says: (A) Strategy for CRISPR-driven mScarlet-I gene knock-in to the MTOR locus using a linear double-stranded DNA (dsDNA) donor. […] The percentage of cells expressing the mScarlet-I reporter was quantified by FACS after selection. HA, homology arm. PA, polyadenylation signal. EGFP, enhanced green fluorescent protein. 2A self-cleaving peptide.
(A) Strategy for the CRISPR-driven CAR-2A-EGFP gene knock-in to the MTOR locus using a linear double-stranded DNA (dsDNA) donor. […] The percentage of cells expressing the EGFP reporter was quantified by FACS after selection. HA; homology arm. PA; polyadenylation signal. EGFP; enhanced green fluorescent protein. 2A self-cleaving peptide.
The percentage of cells expressing the EGFP reporter was quantified by FACS after selection. HA, homology arm. PA, polyadenylation signal. EGFP, enhanced green fluorescent protein. 2A self-cleaving peptide.
dsDNA donors were produced as described previously^24. The donor sequences were cloned into a cloning vector and PCR amplification (25 cycles) was performed using Kapa-HiFi polymerase. DNA purification was performed by solid-phase reversible immobilization using AMPure XP (Beckman Coulter) magnetic beads. For ribonucleoprotein complex (RNP) formulation, 100 pmols of sgRNAs (IDT) were mixed with 0.8 μL of 100 mg/mL polyglutamic acid (Sigma) and 50 pmols of SpCas9 nuclease (IDT), as previously described^27. The RNP mix was incubated at 37° C. for 10 minutes and the dsDNA donors were added to the mix and incubated at room temperature for 5 minutes before transfection. Primary CD3^+ T cells (1×10^6 cells/transfection) were transfected using a Lonza 4D Nucleofector™ with a P3 nucleofection kit (Lonza) following manufacturer's recommendations with the indicated DNA concentrations. CD3+ T cells were resuspended in 80 μL media without IL-2 directly after nucleofection and incubated at 37° C. for 15 minutes before transfer into culture media plates. For AAV6 transduction, CD3+ T cells were resuspended in 80 μL media directly after nucleofection and AAV6 vectors were added. Cells were incubated at 37° C. for 8 hours at high cell density before transfer into culture media plates.
The percentage of fluorescent cells was quantified using a BD LSRII flow cytometer and 1×10^5 cells were analyzed for each condition. For antibody staining, K562 cells were incubated with Fc receptor block (eBioscience Cat 16-9161-73) for 20 minutes on ice with PBS and 3% human serum (Sigma). Anti-human CD34 Alexa Fluor 488-conjugated antibody clone QBEnd10 (R and D systems Cat FAB7227G) and anti-human CD52 FITC-conjugated antibody clone HI186 were used for RQR8 and CD52 quantification, respectively. For mTORC1 signaling assays, cells were treated with the indicated concentration of rapamycin or AZD8055 for 24 hours before analysis. […]

For series [4], the system named is K562 cells. In words: K562 cell growth in the presence of rapamycin. It counts as cell-based, human. The protocol: (A) Prime editing and small indels quantification at MTOR as determined by BEAT and TIDE analysis from Sanger sequencing. K562 cells stably expressing the mSc-TOSI reporter were transfected with 0.75 μg of pCMV-PEmax vector, 0.25 μg of epegRNA (tevopreQ1) vector, and 0.1 μg of nick sgRNA vector. Genomic DNA was harvested 3 days post-transfection (before selection) and cells were treated (rapamycin) or not (vehicle) with 0.5 μM rapamycin until all non-resistant cells were eliminated.
K562 cells were obtained from the ATCC (CCL-243) and NALM6 cells stably transduced to express a FLUC-T2A-RFP-IRES-Puro reporter gene cassette (Biosettia). K562 and NALM6 cells were maintained at 37° C. under 5% CO2 in RPMI medium supplemented with 10% FBS, penicillin-streptomycin, and GlutaMAX. Cells were routinely tested for the absence of mycoplasma contamination. Rapamycin (Cayman Chemicals, Cat 53123-88-9) was dissolved at 10 mg/mL in DMSO, working dilutions were prepared in water and stored at −20° C. AZD8055 ([…] Technologies) was dissolved at 10 mM in DMSO, working dilutions were prepared in water and stored at −20° C. DMSO alone was diluted in water and used as vehicle control. Ouabain octahydrate (Sigma) was dissolved at […] in hot water, working dilutions were prepared in water and stored at −20° C. K562 cells (2×10^5 cells/transfection) were transfected using a Lonza 4D Nucleofector™ with a SF nucleofection kit (Lonza) following manufacturer's recommendations with the indicated DNA concentrations. Cells were treated with the indicated concentration of rapamycin 3 days post-nucleofection until all non-resistant cells were eliminated. For the isolation of single cell-derived clones, simultaneous coselection and cloning was performed in methylcellulose-based semi-solid RPMI medium supplemented with 100 μM ouabain for 10 days.
We then designed epegRNAs to validate the new MTOR-F2108 mutations individually. […] These observations confirmed that the five new mutations identified by saturation prime editing conferred resistance to rapamycin.

Series [5] deals with mTORC1 signaling. Put plainly: mSc-TOSI mTORC1 signaling assay (FACS) in K562 cells. The class given is cell-based, human. The protocol: (A) Schematic representation of the mScarlet-I mTOR Signaling Indicator (mSc-TOSI) degradation under mTORC1 signaling. (B) mSc-TOSI fluorescence intensity in bulk populations of K562 cells stably expressing the mTORC1 signaling reporter. Where indicated, cells were treated with the indicated concentration of mTOR inhibitor for 24 hours before FACS analysis.
(A) Schematic representation of the mScarlet-I mTOR Signaling Indicator (mSc-TOSI) degradation under mTORC1 signaling. (B) mSc-TOSI fluorescence intensity in homozygous single cell-derived K562 clones harboring the MTOR-F2108L mutation with or without targeted CAR integration. Single cell-derived K562 clones were isolated in methylcellulose-based semi-solid RPMI media supplemented with 100 μM ouabain. Where indicated, cells were treated with the indicated concentration of mTOR inhibitor for 24 hours before FACS analysis.
Active mTORC1 signaling results in rapid phosphorylation of the mSc-TOSI phosphodegron by S6K, ubiquitination, and degradation by the proteasome while its inhibition stabilizes the reporter.
The percentage of fluorescent cells was quantified using a BD LSRII flow cytometer and 1×10^5 cells were analyzed for each condition. […] For mTORC1 signaling assays, cells were treated with the indicated concentration of rapamycin or AZD8055 for 24 hours before analysis. FACS sorting was performed using a BD FACS Aria Fusion flow cytometer for the saturation prime editing experiment and 5×10^5 cells were sorted for each condition. Flow cytometric data visualization and analysis were performed using FlowJo™ software (Tree Star).
We then adapted a fluorescent mTORC1 signaling indicator^34 (mSc-TOSI) to assess the impact of rapamycin on mTORC1 signaling after targeted transgene integration to the MTOR locus. Active mTORC1 signaling results in rapid phosphorylation of the mSc-TOSI phosphodegron by S6K, ubiquitination, and degradation by the proteasome while its inhibition stabilizes the reporter^34 (FIG. 5A). We treated bulk populations of cells harboring the MTOR-F2108L mutation with or without targeted therapeutic transgene integration at the MTOR locus with different concentrations of rapamycin and AZD8055, a second-generation mTOR inhibitor.

Series [6] concerns metastatic anaplastic thyroid carcinoma. Particulars: patient with metastatic anaplastic thyroid carcinoma; cited from earlier work.

In the case of “RQR8: 136-amino-acid epitope-based marker/suicide gene targeted to MTOR with plasmid donor (SEQ ID NO: 26)”, the transgene expression result in series [1] was “higher transgene expression”.

For the compound “G49: gRNA, MTOR-Intron 45, target AGGTAGGATCTTCAGGCTCC (SEQ ID NO: 6); used as SpCas9 RNP with donor (listed as DNA, chemistry not given here; listed as Homo sapiens)”, the “alleles harboring the F2108L mutation” value in series [2] is on record as “up to 63%”. For the same compound, the “alleles harboring the PAM mutation” value in series [2] is no more than 69%. The “percentage of CD3+ T cells expressing the mScarlet-I reporter” value in series [3] (1 μg dsDNA donor, after rapamycin selection 8 days) is 21%; in series [3] (1 μg dsDNA donor, without selection) it was 11%; in series [3] (2 μg dsDNA donor, after rapamycin selection 8 days), 31%; in series [3] (2 μg dsDNA donor, without selection) it was 18%.

Regarding `CO[C@H]1C[C@@H]2CC[C@@H](C)[C@@](O)(O2)C(=O)C(=O)N2CCCC[C@H]2C(=O)O[C@H]([C@H](C)C[C@@H]2CC[C@@H](O)[C@H](OC)C2)CC(=O)[C@H](C)/C=C(\C)[C@@H](O)[C@@H](OC)C(=O)[C@H](C)C[C@H](C)/C=C/C=C/C=C/1C` [rapamycin, Rapamycin], the “resistance of cells to rapamycin” value in series [4] (ABE8e-targeted K562 cells) is “partial resistance”; in series [4] (K562 cells with silent F2108F mutation, 0.5 μM rapamycin), “no resistance”. In series [4] (K562 cells harboring MTOR-F2108 substitutions, 0.5 μM rapamycin), the cell growth result is on record as “grew robustly”. In addition, the mTORC1 signaling result in series [5] (K562 cells after prime editing (F2108L) and selection, different concentrations of rapamycin) is “remained functional”; in series [5] (K562 with F2108L mutation), “complete rapamycin resistance”; in series [5] (K562 with F2108V and F2108K) it was “low levels of signaling”; in series [5] (K562 with F21081, F2108M, and F2108G), “intermediate levels of signaling”; in series [5] (K562 without epegRNA (pUC19) and with silent F2108F mutation), “complete mTORC1 signaling inhibition”; in series [5] (MTOR-F2108L homozygous K562 clones with or without CAR integration, rapamycin treatment), “remained completely functional”. Besides, the mTORC1 signaling result is listed as “very low levels of mTORC1 signaling” in series [5] (adenine base edited K562 cells, in the presence of rapamycin) and “functional mTORC1 signaling; also recorded: slight mTORC1 signaling decrease” in series [5] (bulk K562 cells harboring MTOR-F2108L with or without transgene integration, 50 nM to 5 000 nM rapamycin, 24 hours).

With `CO[C@H]1C[C@@H]2CC[C@@H](C)[C@@](O)(O2)C(=O)C(=O)N2CCCC[C@H]2C(=O)O[C@H]([C@H](C)C[C@@H]2CC[C@@H](OCCO)[C@H](OC)C2)CC(=O)[C@H](C)/C=C(\C)[C@@H](O)[C@@H](OC)C(=O)[C@H](C)C[C@H](C)/C=C/C=C/C=C/1C` [everolimus], in series [6], the “response duration before relapse” value is given as 18 month.

Take `COc1ccc(-c2ccc3c(N4CCOC[C@@H]4C)nc(N4CCOC[C@@H]4C)nc3n2)cc1CO` [AZD8055]: the “sensitivity of mTORC1 signaling to inhibitor” value in series [5] (CRISPR-engineered K562 cells harboring MTOR-F2108L, 24 hours) was “remained sensitive”.
